Reference: patent publication US11858946B2, “Small molecules active against gram-negative bacteria” (The Board of Trustees of the University of Illinois, priority 2016, dated 2024)
Converted amounts (≈) assume the structure as drawn. Like-named read-outs stand apart in the source and are kept apart here.

Assays:
E. coli MG1655 [1] = assay: Accumulation assay in whole-cell E. coli, LC-MS/MS quantification; conditions: for accumulation in E. coli: E. coli MG1655 whole cells, 37° C., LC-MS/MS; for accumulation in E. coli / accumulation in E. coli (in words): 50 μM compound, 10 minutes; for accumulation in E. coli (in words): E. coli whole cells; for accumulation upon co-treatment with colistin: E. coli, 6.0 μM colistin sulfate added before compound
Source text: Antimicrob. Agents Chemother. 36, 2622-2627, (1992); Davis, T. D., Gerry, C. J. & Tan, D. S. General platform for systematic quantitative evaluation of small-molecule permeability in bacteria. ACS Chem. Biol. 9, 2535-2544, (2014); and Cai, H., Rose, K., Liang, L. H., Dunham, S. & Stover, C. Development of a liquid chromatography/mass spectrometry-based drug accumulation assay in Pseudomonas aeruginosa. Anal. Biochem. 385, 321-325, (2009); with LC-MS/MS used to quantify the accumulation of each compound. E. coli MG1655 was utilized for these experiments as this strain has been only minimally altered from its K-12 progenitor. To ensure the assay was reporting on compound accumulation, as opposed to non-specific affinity for the outer membrane, several control experiments were conducted. The assay method was evaluated with antibiotics that have known high or low levels of accumulation, based on published accumulation data and antibacterial activity against E. coli. […] Colistin is known to potentiate the activity of low-accumulating antibiotics by aiding the diffusion of lipophilic compounds across the membrane.
For each replicate, 2.5 mL of an overnight culture of E. coli was diluted into 250 mL of fresh Luria Bertani (LB) broth (Lennox) and grown at 37° C. with shaking to an OD600=0.55. The bacteria were pelleted at 3,220 rcf for 10 minutes at 4° C. and the supernatant was discarded. The pellets were re-suspended in 40 mL of phosphate buffered saline (PBS) and pelleted as before, and the supernatant was discarded. The pellets were re-suspended in 8.8 mL of fresh PBS and aliquoted into ten 1.5 mL eppendorf tubes (875 μL each). The number of colony forming units (CFUs) was determined via a calibration curve. The samples were equilibrated at 37° C. with shaking for 5 minutes, compound was added ([final]=50 μM), and then samples were incubated at 37° C. with shaking for 10 minutes. […] After incubation, 800 μL of the cultures were carefully layered on 700 μL of silicone oil (9:1 AR20/Sigma High Temperature, cooled to −78° C.). Bacteria were pelleted through the oil by centrifuging at 13,000 rcf for 2 minutes at room temperature (supernatant remains above the oil); the supernatant and oil were then removed by pipetting. To lyse the samples, each pellet was dissolved in 200 μL of water, and then they were subjected to three freeze-thaw cycle of three minutes in liquid nitrogen followed by three minutes in a water bath at 65° C. The lysates were pelleted at 13,000 rcf for 2 minutes at room temperature and the supernatant was collected (180 μL). The debris was re-suspended in 100 μL of methanol and pelleted as before. The supernatants were removed and combined with the previous supernatants collected. Finally, remaining debris was removed by centrifuging at 20,000 rcf for 10 minutes at room temperature. Supernatants were analyzed by LC-MS/MS.
Samples were analyzed with the 5500 QTRAP LC/MS/MS system (AB Sciex, Foster City, CA) with a 1200 series HPLC system (Agilent Technologies, Santa Clara, CA) including a degasser, an autosampler, and a binary pump. The LC separation was performed on an Agilent SB-Aq column (4.6×50 mm, 5 μm) (Agilent Technologies, Santa Clara, CA) with mobile phase A (0.1% formic acid in water) and mobile phase B (0.1% formic acid in acetonitrile). The flow rate was 0.3 mL/min. The linear gradient was as follows: 0-3 min, 100% A; 10-15 min, 2% A; 15.5-21 min, 100% A. The autosampler was set at 5° C. The injection volume was 15 μL. Mass spectra were acquired with both positive electrospray ionization (ESI) at the ion spray voltage of 5500 V and negative ESI at the ion spray voltage of −4500 V. The source temperature was 450° C. The curtain gas, ion source gas 1, and ion source gas 2 were 33, 50, and 65, respectively.

Staphylococcus aureus = assay: Antibiotic susceptibility test (microdilution broth), S. aureus; format: cell-based
E. coli MG1655 [2] = assay: Antibiotic susceptibility test (microdilution broth), E. coli MG1655; format: cell-based, Escherichia coli; conditions: for MIC: Escherichia coli
Method: (§1) 6DNM and its derivatives were further evaluated against an expanded panel of Gram-negative pathogens, laboratory strains and clinical isolates of ESKAPE pathogens E. coli, Acinetobacter baumannii, Klebsiella pneumoniae, Enterobacter cloacae, and Pseudomonas aeruginosa (Table 1 of FIG. 19).
(§2) Susceptibility testing was performed in triplicate, using the microdilution broth method as outlined by the Clinical and Laboratory Standards Institute. Mueller Hinton (MH) broth was used.

E. coli (ATCC BAA-2469) = assay: Antibiotic susceptibility test (microdilution broth), NDM-1 producing E. coli clinical isolate; format: cell-based; conditions: Escherichia coli, ATCCBAA2469, read-out: MIC against multi-drug resistant NDM-1 producing E. coli ATCC BAA-2469
Method: as §1, §2

[3] = tested on: E. coli, Acinetobacter baumannii, Klebsiella pneumoniae, Enterobacter cloacae, and Pseudomonas aeruginosa; assay: Antibiotic susceptibility test (microdilution broth), expanded panel of Gram-negative pathogens; format: cell-based; conditions: for activity against expanded panel of Gram-negative pathogens (in words): laboratory strains and clinical isolates of ESKAPE pathogens
Method: as §1, §2

[4] = tested on: ΔompR strain of E. coli (OmpF and OmpC knockout) vs parental E. coli BW25113
Source text: A ΔompR strain of E. coli from the KEIO knockout collection was therefore chosen to effectively knockout both OmpF and OmpC (knockout was validated by analyzing the outer membrane proteins of the ΔompR strain compared to the parental strain, data not shown).

## Cc1cc(=O)n(C)c2c3c4c(cc12)c(C)cc(=O)n4C(CN)CO3 (centres unmarked) [Compound 6DNM-NH3]
E. coli MG1655 [1]
  accumulation in E. coli: 1114 nmol/10^12 CFUs
Staphylococcus aureus
  activity against S. aureus (in words): retains activity
E. coli MG1655 [2]; MG1655, microdilution broth, MH broth, read-out: MIC against E. coli MG1655
  MIC: 0.5 µg/mL (≈ 1.54 µM)
E. coli (ATCC BAA-2469)
  MIC: 4 µg/mL (≈ 12.3 µM)
[3]; clinical isolates
  activity against other clinical isolates of E. coli, A. baumannii, K. pneumonia, and E. cloacae (in words): good activity against most of the other clinical isolates
[3]
  activity against expanded panel of Gram-negative pathogens (in words): antibacterial activity against all of these Gram-negative pathogens except P. aeruginosa
[4]
  accumulation in ΔompR strain compared to parental/WT strain: decrease in accumulation

## Cc1cc(=O)n(C)c2c3c4c(cc12)c(C)cc(=O)n4C(CC(=O)O)CO3 (centres unmarked) [Compound 6DNM-acid]
E. coli MG1655 [1]
  accumulation in E. coli (in words): do not accumulate
E. coli MG1655 [2]
  activity against E. coli (in words): no activity

## CC(=O)NCC1COc2c3c(cc4c(C)cc(=O)n1c24)c(C)cc(=O)n3C (centres unmarked) [Compound 6DNM-amide]
E. coli MG1655 [1]
  accumulation in E. coli (in words): do not accumulate
E. coli MG1655 [2]
  activity against E. coli (in words): no activity

## Cc1cc(=O)n(C)c2c3c4c(cc12)c(C)cc(=O)n4CCO3 [Compound 6DNM]
E. coli MG1655 [1]
  accumulation in E. coli: 298 nmol/10^12 CFUs
Staphylococcus aureus; Staphylococcus aureus, microdilution broth, MH broth, read-out: MIC against Staphylococcus aureus
  MIC: 0.06 to 1 µg/mL (≈ 0.202 to 3.37 µM)
E. coli MG1655 [2]; MG1655, read-out: MIC versus E. coli
  MIC: > 32 µg/mL
[3]
  activity against expanded panel of Gram-negative pathogens (in words): no notable activity

## NC1COC2C(O)COC12 (centres unmarked) [Compound 20, mono-amine isomannide]
E. coli MG1655 [1]
  accumulation in E. coli (in words): does not accumulate

## O=C(O)c1cn(C2CC2)c2cc(N3CCNCC3)c(F)cc2c1=O [ciprofloxacin, reference compound]
E. coli MG1655 [1]; treatment for 10 minutes, 50 μM
  reduction of CFUs during accumulation assay (factor): five
[4]
  accumulation in ΔompR strain compared to parental/WT strain: significant decrease in accumulation

## CO[C@@H]1[C@@H](OC(N)=O)[C@@H](O)[C@H](Oc2ccc3c(O)c(NC(=O)c4ccc(O)c(CC=C(C)C)c4)c(=O)oc3c2C)OC1(C)C [novobiocin, reference compound]
E. coli MG1655 [1]
  accumulation upon co-treatment with colistin: increase in accumulation

## CO[C@H]1/C=C/O[C@@]2(C)Oc3c(C)c(O)c4c(O)c(c(/C=N/N5CCN(C)CC5)c(O)c4c3C2=O)NC(=O)/C(C)=C\C=C\[C@H](C)[C@H](O)[C@@H](C)[C@@H](O)[C@@H](C)[C@H](OC(C)=O)[C@@H]1C [rifampicin, reference compound]
E. coli MG1655 [1]
  accumulation upon co-treatment with colistin: increase in accumulation
